The test system of assay [1] is alkaline phosphatase (ALP) in HOS cells. The assay is described as follows: Alkaline phosphatase (osteoblast marker enzyme) activity in HOS cells. Format: cell-based, human. As to conditions: text summary, concentration not stated. From the text:
(§1) In the following tests, three kinds of cell lines were used. The human osteosarcoma cell lines, MG-63 (ATCC No. CRL-1427) and HOS (ATCC No. CRL-1543), and mouse muscle C2C12 muscle cells (ATCC No. CRL-1772) were purchased from ATCC (American Type Culture Collection, Rockville, USA), and cultured in Dulbecco's modified Eagle's medium (DMEM) supplemented with 10% fetal bovine serum (FBS).
To examine whether the Compound 1 affects positively or negatively osteoblast activity, alkaline phosphatase (ALP) activity was measured. HOS cells were aliquotted onto a 96-well microplate at a density of 5×10^3 cells per well, and cultured. When forming a monolayer, the cells were treated with the naturally extracted compound (Compound 1) at prescribed concentrations. After incubation in 10% FBS-containing DMEM for 48 hrs, the cells were treated with 0.1% Triton X-100/saline for 30 min at 37° C. A portion of each cell lysate was reacted with 0.1 N glycine-NaOh buffer (pH 10.4) for 30 min at 37° C. in the presence of 100 mM nitrophenyl phosphate (PNPP) as a substrate of alkaline phosphate. The amount of PNP (ρ-nitrophenol) released from the substrate PNPP was determined by measuring absorbance at 405 nm. Protein amount was determined by a modified Lowry method, and enzyme activity was designated as nmol substrate cleaved/h/mg protein.

The next assay has as its system osteoprotegerin (OPG). The assay is described as follows: Osteoprotegerin (OPG) expression in MG63 cells, OPG ELISA. Particulars: for OPG expression level in MG63 cells, %: control = 100. Format: cell-based, human. As for the experimental part:
as §1
When MG63 cells grew confluently on 96-well plates, […] of FBS-free DMEM containing various concentrations of the Compound 1 was added to each well. After incubation for 16 hrs, the culture supernatants were collected. The amount of OPG released into the medium was determined using an OPG ELISA kit.
For orientation: In an ELISA, binding on a coated surface is turned into a signal by an enzyme label.

The test system of assay [2] is osteoclast progenitor cells. The assay is described as follows: Formation of TRAP-positive multinucleated cells from osteoclast progenitors. As to conditions: for No. of TRAP(+) multinucleated cells: M-CSF + RANKL, untreated control 132.80 ± 10.50; for number of TRAP-positive multinucleated cells in treated cultures: text summary, concentration not stated, control 132. Format: cell-based, mice. As for the experimental part: First, bone marrow cells were isolated, as follow. After sacrificing 7-9 week female mice by cervical dislocation, femur and tibia were excised aseptically while removing attached soft tissues. After cutting both ends of long bones, 1 ml of an enzyme solution, containing 0.1% collagenase (Gibco), 0.05% trypsin and 0.5 mM EDTA (Gibco), was injected to the bone marrow cavity at one end using a syringe with a 26-guage needle, and bone marrow was then collected. After shaking the recovered bone marrow for 30 min, bone marrow cells were collected, and cultured in α-minimum essential medium (α-MEM) supplemented with 10% FBS for 24 hrs. Then, non-adherent cells were collected, which are osteoclast pregenitors, aliquotted onto culture plates at a density of 2×10^5 cells per well, and cultured for 8 days in α-MEM supplemented with 20 ng/ml of macrophage-colony stimulating factor (M-CSF, Peprotech, USA) and 30 ng/ml RANKL (Peprotech, USA). During the 8 days of culturing, the cells were treated with the Compound 1. Thereafter, osteoclast formation was investigated by fixing the cultured cells and then carrying out TRAP staining, as described in the following Experimental Example 2.2. In addition, resorption activity of osteoclasts was investigated by measuring the absorption area after removing osteoclasts in cultures in calcium phosphate-coated plates, as described in Experimental Example 2.3, below.
After cell culture, the adherent cells were washed with PBS, and TRAP staining was performed, as follows. After being fixed with citrate-acetate-formaldehyde for 5 min, the cells were incubated for 1 hr in acetate buffer (prewarmed at 37° C., pH 5.0) containing naphthol AS-BI phosphate, fast Garnet GBC and 7 mM tartrate buffer (pH 5.0). TRAP-positive multinucleated cells having 3 or more nuclei were considered as osteoclasts.

Assay [3] deals with osteoclast pregenitor cells. In words: Inhibition rates of furan derivatives versus osteoclast formation (TRAP staining). As to conditions: TRAP-positive multinucleated cells, untreated control set as 100%. Format: cell-based, mice. Summed up: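 Non-adherent mouse bone-marrow osteoclast precursors cultured 8 days with 20 ng/ml M-CSF and 30 ng/ml RANKL in presence of compound. TRAP-positive cells with ≥3 nuclei counted; inhibition expressed relative to untreated control set at 100%.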

Assay [4] has as its system ovariectomized female white mice with onset of osteoporosis. The assay is described as follows: Therapeutic effect on osteoporosis, bone mineral densitometer. Format: in vivo. As for the experimental part: After ovariectomy, female white mice weighing about 250 g were bred for four weeks. After checking the onset of osteoporosis in the mice, each of the mice was orally administered with 220 μl of the Compound 1 dissolved in 30 ml water for four weeks.
BMD measurement was performed before ovariectomy and every week for eight weeks after ovariectomy, using a bone mineral densitometer, XCT 540 Research SA made in Germany.
After anesthetizing the mice being bred in cages by intraperitoneal injection of a mixture of Ketamine HCl (ketara 10 mg/kg) and 2% xylazine HCl (Roupun 0.15 ml/kg), BMD measurement was made at a voxel size of 0.1×0,1 mm^2 and threshold values of 280 mg/cm^2 for cancellous bone and 500 mg/cm^2 for compact bone. The analysis sites at the proximal tibias were determined by Scout scans (10 mm/sec), and BMD was measured at three slices at the determined sites by CT scans (7 mm/sec). BMD measurement was performed twice or more at the same site every week during eight weeks after ovariectomy.

Results on one compound are retold here after patent US20060004088A1, “Furan derivatives for preventing and curing osteoporosis and pharmaceutical compositions containing the same” (OCT INC., priority 2002, published 2006).

Take `O=Cc1ccc(CO)o1` [Compound 1, 5-hydroxymethylfuran-2-carboxyaldehyde]: the “alkaline phosphatase activity compared to a control not treated” value in assay [1] is on record as “about 121%”; in assay [1] (listed as Example 1) it was 120%. In addition, the “effect on expression of osteoprotegerin (OPG) in osteoblasts (in words)” value with osteoprotegerin (OPG) is given as “increases the expression of osteoprotegerin (OPG)”. For the same compound, the “OPG expression level in MG63 cells, %” value turned out to be 866.90 ± 10.59% in the assay with osteoprotegerin (OPG) (10^−6 M Compound 1, 16 hrs) and 204.30 ± 14.96% with osteoprotegerin (OPG) (10^−8 M Compound 1, 16 hrs). In addition, the “No. of TRAP(+) multinucleated cells” value is listed as 77.20 ± 6.73 in assay [2] (10^−4 M Compound 1, 8 days); 108.20 ± 4.57 in assay [2] (10^−5 M Compound 1, 8 days); 103.60 ± 6.95 in assay [2] (10^−6 M Compound 1, 8 days); 120.00 ± 6.42 in assay [2] (10^−7 M Compound 1, 8 days); 105.20 ± 8.58 in assay [2] (10^−8 M Compound 1, 8 days). The “number of TRAP-positive multinucleated cells in treated cultures” value in assay [2] is on record as 77; in assay [2] (listed as Example 1), “remarkably reduced”. For the same compound, the “Inhibition rate against osteoclast formation, %” value in assay [3] (0.1 μM) was 0%; in assay [3] (1 μM) it was 0%; in assay [3] (10 μM), 30%. Further, the “decrease of BMD compared to that before the ovariectomy” value in assay [4] (control about 22%) is “about 15%”. The “reduction of BMD compared to a control (in words)” value in assay [4] (oral 220 μl/day for four weeks after four weeks of osteoporosis development) was “very slight reduction of BMD”. The “Change in BMD, %” value in assay [4] (week 1 after ovariectomy (administration begins after week 4), control −3) was −2.9%; in assay [4] (week 2 after ovariectomy (administration begins after week 4), control −10), −10.5%; in assay [4] (week 3 after ovariectomy (administration begins after week 4), control −15), −14%; in assay [4] (week 4 after ovariectomy (administration begins after week 4), control −19), −17%; in assay [4] (week 5 after ovariectomy, oral 220 μl in 30 ml water from week 4, control −21.8) it was −16.5%; in assay [4] (week 7 after ovariectomy, oral 220 μl in 30 ml water from week 4, control −25.9) it was −19%. In addition, the “Change in BMD, %” value in assay [4] (week 8 after ovariectomy, oral 220 μl in 30 ml water from week 4, control −32) was −21.4%.
